Entries after “also recorded” stand apart in the source; their conditions may differ.

For one test, the system named is patients. The test can be described thus: Cerebral blood flow relative to baseline after a single dose (Example 1). Type of test: in vivo, human.
The subject of test [1] is healthy subjects. The test can be described thus: Adaptive tracking test (visuomotor coordination and vigilance). Type of test: in vivo, human. The conditions noted are these: single dose of 160 μg clenbuterol. An excerpt: Adaptive tracking measures visuomotor coordination and vigilance. In this test, the subject uses a joystick to move a small dot so that it stays within a continuously moving circle on a computer screen (Boland 1984). During the test, the speed of the circle is adjusted in response to the subject's ability to keep the dot in the circle, ensuring that the test is adapted to the individual subject. […] The improvement shown by subjects is in the same range as that seen with subjects treated with the acetylcholinesterase inhibitor donepezil, which is in clinical use for the treatment of mild to moderate AD (Groeneveld 2016).

Test [2] deals with healthy subjects. The test can be described thus: ASL MRI cerebral perfusion before and after a single dose (Example 3). It counts as in vivo, human. The method, then:
In a clinical study, healthy subjects were administered doses of clenbuterol ranging from 20 to 160 μg and ASL MRI was conducted prior to and after dosing with an objective to ascertain whether this neuroimaging method enables the detection of a clinically relevant CNS signal.
In a region of interest (ROI) analysis focusing on the hippocampus, which is well understood to be affected in neurodegenerative disorders, a single dose of 80 μg of clenbuterol causes a robust increase in perfusion (see FIG. 7). […] Taken together with other cohorts in which ASL MRI was conducted, a clear dose response relationship is seen between dose of clenbuterol and cerebral perfusion (FIG. 8). […] Our hypothesis is that by improving cerebral perfusion, particularly in areas of the brain that are relevant for symptoms that are commonly found in neurodegenerative diseases such as PD and AD, the administration of a β2-AR agonist will have a positive effect on clinically relevant symptoms such as memory and cognition.

The subject of the next test is subjects. The test can be described thus: Visual verbal learning test (VVLT). It counts as in vivo, human. The conditions noted are these: crossover study; for effect on the VVLT (learning and memory): 3 agents plus placebo. The protocol: The visual verbal learning test (VVLT) is a test for learning and memory (de Haas 2009). Subjects are presented 30 words on a screen, one at a time, for 1 second with a 1-second interval between words over a total of 1 minute. This is repeated in 3 trials. After each trial, subjects are asked to recall as many words as they can. After the third trial, there is a delay of 2.5 hours and subjects are then tested once for delayed recall. […] Since this was a crossover study, everyone who completed Part A was dosed with the 3 agents plus placebo.

The test system of another test is Ts65Dn mice. The note with it: increasing brain NE levels; cited from earlier work.

With `CC(C)(C)NCC(O)c1cc(Cl)c(N)c(Cl)c1` (stereo not shown) [clenbuterol], the “cerebral blood flow (CBF) relative to the baseline” value is “robust global increase; also recorded: positive increase” with patients (single dose of clenbuterol 160 μg) and “robust global increase” with patients (single dose of clenbuterol ranging from 30 to 160 μg, tracked over 3 days). Moreover, in the test with healthy subjects [1], the “performance in adaptive tracking (percent time dot kept within moving circle)” value is listed as “improved”. Moreover, in the test with healthy subjects [1] (healthy subjects, preliminary data), the “cognition as measured by adaptive tracking and word recall” value is listed as “improves cognition”. Also, the “cerebral perfusion increase as measured by CBF” value with healthy subjects [2] (clenbuterol dose of 40 μg) was “minimal increase”; with healthy subjects [2] (clenbuterol doses below 30 μg) it was “do not produce significant cerebral perfusion increases”. Also, in the test with healthy subjects [2] (doses of 80 and 160 μg clenbuterol), the “improvements in perfusion in brain areas relevant to neurodegenerative disorders” value is about 25%. Besides, the global perfusion result in the test with healthy subjects [2] (doses of 80 and 160 μg clenbuterol, ASL MRI) was “robust, global increase”. Further, the “increase in hippocampal perfusion, on average” value in the test with healthy subjects [2] (single dose of 80 μg clenbuterol, 6 healthy subjects aged 44 to 52, ROI hippocampus) was found to be 25%. Moreover, the “cerebral perfusion (global; hippocampus, thalamus, cortex)” value in the test on healthy subjects [2] (single dose of 160 μg clenbuterol, ASL MRI) is on record as “robust global increase”. In addition, the “VVLT performance, immediate recall (Trial 1)” value with subjects is on record as “improved performance”. Further, in the test on subjects, the “effect on the VVLT (learning and memory)” value is on record as “positive effects”. The “VVLT performance, delayed recall” value in the test with subjects (recall after delay of 2.5 hours) is on record as “improved performance”.

In the case of `CC(C)(C)NCC(O)c1ccc(O)c(CO)c1` (stereo not shown) [salbutamol], the “effect on the VVLT (learning and memory)” value in the test with subjects is “positive effects”.

Take `N[C@H](C(=O)O)[C@H](O)c1ccc(O)c(O)c1` [L-DOPS, L-threo-3,4-dihydroxyphenylserine]: the contextual learning result in the test on Ts65Dn mice was “restored contextual learning”.

Turning to `CC(C)NCC(O)COc1cccc2[nH]ccc12` (stereo not shown) [pindolol], the “effect on the VVLT (learning and memory)” value with subjects was “detrimental effect”.

These data come from patent US12558325B2, “Methods for improving neurological diseases and disorders” (CuraSen Therapeutics, Inc., priority 2019, dated 2026).
